Non-standard residues stand in square brackets, D forms with d. Residues, ends and D or L forms follow the SMILES beside them. *: point of attachment. Dolaproine = CO[C@@H]([C@@H]1CCCN1)[C@@H](C)C(=O)O; Dil = CC[C@H](C)[C@H](NC)[C@@H](CC(=O)O)OC; X1 = C[C@@H](N*)[C@@H](O)c1ccccc1; NMeV = CN[C@H](C(=O)O)C(C)C
System: human motor neurons
Assay: Pharmacological effect (axonal amount, Tuj1) of antibody-MMAE conjugate
Format: cell-based
Conditions: t-test, significance level p<0.05
Experimental: Experiments were performed using human motor neurons, for which synaptogenesis was induced using microbeads coated with the extracellular domain of LRRTM2. Culture of cells, preparation of LRRTM2 beads and induction of presynapse were performed as described in Example 1.
As the drug, a microtubule polymerization inhibitor monomethylauristatin E (MMAE: Cat. No. #HY-15575; MedChemExpress) was used. As the anti-SYT2 N-terminal antibody and the normal rabbit antibody for control, antibodies used in Example 1 were used. Conjugate of MMAE and the antibody was prepared using MagicLink™ kit (broadpharm). Preparation of conjugate was performed according to the manufacturer's protocols.
After warming the neuronal medium at 37° C. for 30 minutes, 4-aminopyridine (Sigma Aldrich) was added to the medium to have a final concentration of 100 μM and mixed. In addition, conjugate was added to have a final concentration of 1 μg/mL and mixed. […]
The axonal amount was obtained as the sum of the brightness (=(fluorescence intensity per pixel)×(pixel number)) of Tuj1 signals in the obtained fluorescence images. The relative amount of axon was calculated as the value normalized by the results obtained using the conjugate of the control normal rabbit antibody and MMAE set to 100%. […]

SMILES: CC[C@H](C)[C@@H]([C@@H](CC(=O)N1CCC[C@H]1[C@H](OC)[C@@H](C)C(=O)N[C@H](C)[C@@H](O)c1ccccc1)OC)N(C)C(=O)[C@@H](NC(=O)[C@@H](NC)C(C)C)C(C)C [MMAE, monomethyl auristatin E] (H-[NMeV]V[Dil][Dolaproine]-X1)
- axonal amount, difference from the control antibody group: no significant differences
